Measured values from patent US20260315454A1, “Use of quinoline-4-carboxylic acid in the preparation of anti-aging product as well as product for protecting liver and promoting liver regeneration” (Guangzhou Riju Trade Development Co., Ltd., priority 2023, published 2026).

Columns and labels:
[1] = system: 21 month-old C57BL6/J mice; assay: survival curves of old mice; format: in vivo; conditions: 5 mg/kg QCA by gavage; Ctrl (n=19) and QCA (n=26)
Experimental: (§1) (7) 21 month-old C57BL6/J mice were randomly divided into control and QCA groups. […] The test mice were placed on the grip strength meter and the tail of the mice was gently pulled, so that the mice grasped the probe forcefully with the forelimbs and hindlimbs. The readings on the grip strength meter were recorded when the mice exerted the maximum force, the arm strength value in mice were obtained by averaging 3 repetitions of the measurements, and the results were shown in FIG. 7B. Blood was taken from the tail vein of mice 4 months after administration by gavage, the proportion of neutrophils (NEU) was measured by routine blood test, and the results were shown in FIG. 7C. […] The mice were examined periodically for the presence of spontaneous tumors, and the number of mice with spontaneous tumors in each group was recorded. […] Concentrations of alanine aminotransferase (ALT), aspartate aminotransferase (AST), and lactate dehydrogenase (LDH) in plasma were measured using a HITACHI 7600 Series (Japan) biochemical detector, and the results were shown in FIG. 7F. Survival times were recorded to make the survival curves of the mice in the Ctrl (n=19) and QCA (n=26) groups, and the results were shown in FIG. 7G.

[2] = system: C57BL6/J mice older than 18 months; assay: ⅔ partial hepatectomy model in old mice, plasma ALT, AST and LDH; format: in vivo; conditions: 5 mg/kg QCA intraperitoneally 2 h before and 24 h, 48 h and 72 h after ⅔PHx
Experimental: (§2) (8) Establishment of ⅔ partial hepatectomy model in old mice (⅔PHx): C57BL6/J mice older than 18 months were anesthetized with 2% isoflurane by inhalation and underwent a median abdominal incision. The left external and median lobes of the liver were resected separately with 4-0 silk sutures, and the associated vessels and bile ducts were ligated. Mice were injected intraperitoneally with 5 mg/kg QCA or an equal volume of DMSO 2 h before ⅔PHx surgery, and 24 h, 48 h and 72 h after ⅔PHx surgery, respectively. Mice were sacrificed at 6 h, 48 h and 168 h after surgery, respectively, and liver specimens and plasma were collected. The postoperative survival time of mice was recorded and used to plot survival curves. Mice were weighed in advance and livers were weighed after liver extraction so that the liver to body weight ratio could be calculated. Concentrations of alanine aminotransferase (ALT), aspartate aminotransferase (AST), and lactate dehydrogenase (LDH) in plasma were measured using a HITACHI 7600 Series (Japan) biochemical detector. Mouse liver samples collected at specific time points were fixed in 4% paraformaldehyde overnight and then embedded in paraffin. […]

[3] = system: High-generation MSCs (Old MSCs); assay: Ki67 immunofluorescence staining of high-generation mesenchymal stem cells; format: cell-based; conditions: P10-15 MSCs; 50 μM and 200 μM QCA for 72 h
Experimental: (§3) 4. High-generation MSCs (Old MSCs) at P10-15 were plated in a 96 plate, and 50 μM, 100 μM, and 200 μM of QCA were added to the medium, respectively. The medium without adding QCA was used as a control. Low-generation MSCs (Young MSCs) at P4-7, high-generation MSCs (Old MSCs) at P10-15, as well as high-generation MSCs respectively treated with 50 μM and 200 μM QCA for 72 h, were subjected to Ki67 immunofluorescence staining, and the results were shown in FIG. 4B.

[4] = system: High-generation MSCs (Old MSCs); assay: TUNEL staining of high-generation mesenchymal stem cells; format: cell-based; conditions: P10-15 MSCs; 50 μM and 200 μM QCA for 72 h
Experimental: (§4) 5. Low-generation MSCs (Young MSCs) at P4-7, high-generation MSCs (Old MSCs) at P10-15, as well as old MSCs respectively treated with 50 μM and 200 μM QCA for 72 h were subjected to TUNEL staining, and the results were shown in FIG. 5A. Old MSCs with 50 μM QCA were added to the medium all the time (a fresh medium containing QCA was changed every 2-3 days), and the medium without adding QCA was used as a control. The cells were passaged for 3 consecutive generations (passaged when the cells were 80-90% confluent) before being used for β-Gal staining tests, and the results were shown in FIG. 5B.

[5] = system: 21 month-old C57BL6/J mice; assay: observation of coat status and dermatitis in old mice; format: in vivo; conditions: 5 mg/kg QCA by consecutive gavage for 4 months
Experimental: as §1, with “groups. 0.9% saline was given to the control group (n=7 for male mice, and n=12 for female mice); and 5 mg/kg QCA was given to the QCA group (n=9 for male mice, and n=13 for female mice) by consecutive gavage for 4 months.” for “groups.”, “Survival times were recorded to make the survival curves of the mice in the Ctrl (n=19) and QCA (n=26) groups, and the results were shown in FIG. 7G.” left out

[6] = system: High-generation MSCs (Old MSCs); assay: CCK8 assay, proliferation of high-generation mesenchymal stem cells; format: cell-based; conditions: P10-15 MSCs; 50 μM, 100 μM, and 200 μM QCA in the medium
Experimental: as §3

[7] = system: 21 month-old C57BL6/J mice; assay: plasma ALT, AST and LDH in old mice; format: in vivo; conditions: aged mice, 5 mg/kg QCA by consecutive gavage for 4 months
Experimental: as §1, with “groups. 0.9% saline was given to the control group (n=7 for male mice, and n=12 for female mice); and 5 mg/kg QCA was given to the QCA group (n=9 for male mice, and n=13 for female mice) by consecutive gavage for 4 months.” for “groups.”, “Survival times were recorded to make the survival curves of the mice in the Ctrl (n=19) and QCA (n=26) groups, and the results were shown in FIG. 7G.” left out

fruit flies = assay: tube-climbing test of fruit flies; format: in vivo; conditions: 20 male fruit flies; 17.5 cm marker; performance at 120 s
[8] = system: High-generation MSCs (Old MSCs); assay: β-Gal staining of high-generation mesenchymal stem cells; format: cell-based; conditions: 50 μM QCA all the time, passaged for 3 consecutive generations
Experimental: as §4

[9] = system: 21 month-old C57BL6/J mice; assay: chronic inflammation in old mice (proportion of neutrophils by routine blood test, serum TNF-α by ELISA); format: in vivo; conditions: 5 mg/kg QCA by consecutive gavage for 4 months
Experimental: as §1, with “groups. 0.9% saline was given to the control group (n=7 for male mice, and n=12 for female mice); and 5 mg/kg QCA was given to the QCA group (n=9 for male mice, and n=13 for female mice) by consecutive gavage for 4 months.” for “groups.”, “Survival times were recorded to make the survival curves of the mice in the Ctrl (n=19) and QCA (n=26) groups, and the results were shown in FIG. 7G.” left out

[10] = system: C57BL6/J mice older than 18 months; assay: ⅔ partial hepatectomy model in old mice, Ki67 immunohistochemical staining of liver; format: in vivo; conditions: 5 mg/kg QCA intraperitoneally 2 h before and 24 h, 48 h and 72 h after ⅔PHx
Experimental: as §2

W1118 fruit flies = assay: lifespan test for fruit flies (survival curves); format: in vivo; conditions: male W1118; 115 μL of QCA (100 mM, 2 mg QCA/tube) in medium; days 20-30 and 40-50
Experimental: (6) The regular medium for rearing fruit flies was added with a preservative and dispensed. After which, 115 μL of QCA (100 mM, equivalent to 2 mg QCA/tube) was added dropwise to the medium, and the same volume of 95% ethanol was added to the control tube. On days 20-30 and 40-50 of fruit flies rearing, the tubes were replaced with QCA-containing rearing tubes for rearing. 3 male W1118 fruit flies and 3 virgin W1118 fruit flies were added to each rearing tube and bred for 3-5 days for a total of 20 tubes. The parental fruit flies were cleared after about 5-6 days, and then adult occurred in about 10 days. A round of picking male fruit flies within 1 day after emergence was performed at a fixed time point each day for a total of 400 fruit flies, in which 20 fruit flies were placed in each tube labeled with the name, date, and number for a total of 20 tubes. Fruit flies were reared at 25° C., 50% humidity and 12 h light/12 h dark, the number of dead fruit flies in the tubes was counted and recorded every day, and the rearing tubes were changed every 3-4 days. The lifespan test for fruit flies in each group needed to be repeated three times independently and the recordings were entered into statistical software for analysis.

[11] = system: C57BL6/J mice older than 18 months; assay: ⅔ partial hepatectomy model in old mice, survival; format: in vivo; conditions: 5 mg/kg QCA intraperitoneally 2 h before and 24 h, 48 h and 72 h after ⅔PHx
Experimental: as §2

[12] = system: 21 month-old C57BL6/J mice; assay: grip strength meter, arm strength of old mice; format: in vivo; conditions: 5 mg/kg QCA by consecutive gavage for 4 months
Experimental: as §1, with “groups. 0.9% saline was given to the control group (n=7 for male mice, and n=12 for female mice); and 5 mg/kg QCA was given to the QCA group (n=9 for male mice, and n=13 for female mice) by consecutive gavage for 4 months.” for “groups.”, “Survival times were recorded to make the survival curves of the mice in the Ctrl (n=19) and QCA (n=26) groups, and the results were shown in FIG. 7G.” left out

[13] = system: C57BL6/J mice older than 18 months; assay: ⅔ partial hepatectomy model in old mice, liver to body weight ratio; format: in vivo; conditions: 5 mg/kg QCA intraperitoneally
Experimental: (8) Establishment of ⅔ partial hepatectomy model in old mice (⅔PHx): C57BL6/J mice older than 18 months were anesthetized with 2% isoflurane by inhalation and underwent a median abdominal incision. The left external and median lobes of the liver were resected separately with 4-0 silk sutures, and the associated vessels and bile ducts were ligated. Mice were injected intraperitoneally with 5 mg/kg QCA or an equal volume of DMSO 2 h before ⅔PHx surgery, and 24 h, 48 h and 72 h after ⅔PHx surgery, respectively. Mice were sacrificed at 6 h, 48 h and 168 h after surgery, respectively, and liver specimens and plasma were collected. The postoperative survival time of mice was recorded and used to plot survival curves. Mice were weighed in advance and livers were weighed after liver extraction so that the liver to body weight ratio could be calculated. Concentrations of alanine aminotransferase (ALT), aspartate aminotransferase (AST), and lactate dehydrogenase (LDH) in plasma were measured using a HITACHI 7600 Series (Japan) biochemical detector. Mouse liver samples collected at specific time points were fixed in 4% paraformaldehyde overnight and then embedded in paraffin. A 3 μm-thick paraffin section was made for subsequent Ki67 immunohistochemical staining, and the specific procedure was as follows: after subjecting to antigen repairing in EDTA (pH 8.0), the sections were incubated with a primary antibody overnight at 4° C., and then incubated with a secondary antibody at 37° C. for 1 h. Sections were stained with diaminobenzidine and hematoxylin, and then visualized and imaged with an optical microscope.

`O=C(O)c1ccnc2ccccc12` [quinoline-4-carboxylic acid] was tested, and the “lifespan of the mice (survival curves)” value [1] was “prolong the lifespan of the mice”, the “enzymatic indexes of liver injury (ALT, AST, LDH) after hepatectomy” value [2] was “attenuates the enzymatic indexes of liver injury” and the “cell proliferation (Ki67 immunofluorescence staining)” value [3] was “can promote cell proliferation”. For the same compound, the “nuclear DNA breakage (TUNEL staining)” value [4] was “reduces nuclear DNA breakage”, the “symptoms such as poor coat and dermatitis” value [5] was “can reduce the symptoms such as poor coat and dermatitis in old mice” and the “cell proliferation (CCK8 assay)” value [6] was “can promote cell proliferation”. For the same compound, the “enzymatic indexes of liver injury (ALT, AST, LDH)” value [7] was “down-regulate the chronic inflammation and enzymatic indexes of liver injury in aged mice”, the “exercise capacity (tube-climbing test)” value (fruit flies) was “enhances their exercise capacity” and the “cell aging (β-Gal staining)” value [8] was “retards cell aging”. The “chronic inflammation (neutrophils, TNF-α)” value [9] was “down-regulate the chronic inflammation”, the “Ki67-positive cells of liver tissue (immunohistochemical staining)” value [10] was “more Ki67-positive cells of liver tissue in the QCA group” and the “lifespan of fruit flies (survival curves)” value (W1118 fruit flies) was “prolongs the lifespan of fruit flies”. The “survival rate of mice after hepatectomy” value [11] was “improves the survival rate of mice after hepatectomy”, the “arm strength (reflecting the muscle strength)” value [12] was “enhance the arm strength” and the “regenerative liver to body weight ratio at 6 h” value ([13]; 6 h after hepatectomy) was “does not significantly increase”. The “regenerative liver to body weight ratio at 48 h” value ([13]; 48 h after hepatectomy) was “significantly increases” and the “regenerative liver to body weight ratio at 168 h” value ([13]; 168 h after hepatectomy) was “does not significantly increase”.
